Laboratory results as given in patent US12208088B2 (Genentech, Inc., priority 2018, dated 2025).
pKi: −log10 of the molar value.

Target: HPK1 (Homo sapiens (Human), UniProt Q92918)
Assay: HPK1 Lantha binding assay ("Lanth")
Conditions: binding assays; Morrison Ki fit
Method in brief: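 TR-FRET binding competition using 2 nM HPK1, 2 nM Eu-anti-GST antibody and 15 nM Tracer222 at 23 °C. Compound was incubated 1 h with enzyme and antibody, then 1 h after tracer addition, with an 11-point 5-fold dilution series. Ki obtained from a Morrison fit that corrects for tracer concentration and Kd.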

Chain of HPK1 (Q92918 1-346 limits assumed): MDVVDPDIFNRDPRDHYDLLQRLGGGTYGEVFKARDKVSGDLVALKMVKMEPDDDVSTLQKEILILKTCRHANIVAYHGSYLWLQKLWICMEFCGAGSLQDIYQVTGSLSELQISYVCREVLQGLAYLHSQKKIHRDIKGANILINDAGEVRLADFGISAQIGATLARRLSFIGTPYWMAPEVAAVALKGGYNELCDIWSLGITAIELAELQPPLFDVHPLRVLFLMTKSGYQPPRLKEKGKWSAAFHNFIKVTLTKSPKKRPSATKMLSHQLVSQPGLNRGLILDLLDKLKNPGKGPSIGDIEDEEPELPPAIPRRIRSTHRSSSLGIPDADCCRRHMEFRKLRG

SMILES | pKi
N#Cc1cccc(-c2cnc3c(c2Cl)C2(CC=CC2)CN3)c1 [Compound 190, 3-(4′-Chloro-1′,2′-dihydrospiro[cyclopentane-1,3′-pyrrolo[2,3-b]pyridin]-3-en-5′-yl)benzonitrile] | 6.45
CN(C)C(=O)c1c(N)ccc(-c2cnc3c(c2Cl)[C@]2(CC[C@@](C)(O)CC2)CN3)c1F [Compound 194a, 6-Amino-3-((1r,4r)-4′-chloro-4-hydroxy-4-methyl-1′,2′-dihydrospiro[cyclohexane-1,3′-pyrrolo[2,3-b]pyridin]-5′-yl)-2-fluoro-N,N-dimethylbenzamide] | 7.52
CN(C)C(=O)c1c(N)ccc(-c2cnc3c(c2Cl)[C@]2(CC[C@](C)(O)CC2)CN3)c1F [Compound 194b, 6-Amino-3-((1s,4s)-4′-chloro-4-hydroxy-4-methyl-1′,2′-dihydrospiro[cyclohexane-1,3′-pyrrolo[2,3-b]pyridin]-5′-yl)-2-fluoro-N,N-dimethylbenzamide] | 8.08
CN(C)C(=O)c1c(N)ccc(-c2cnc3c(c2Cl)C2(CCCCC2)CN3)c1F [Compound 200, 6-Amino-3-(4′-chloro-1′,2′-dihydrospiro[cyclohexane-1,3′-pyrrolo[2,3-b]pyridin]-5′-yl)-2-fluoro-N,N-dimethylbenzamide] | 8.32
O=S(=O)(c1ccc(-c2cnc3c(c2Cl)C2(CC=CC2)CN3)cc1)n1cccn1 [Compound 203, 5′-(4-((1H-Pyrazol-1-yl)sulfonyl)phenyl)-4′-chloro-1′,2′-dihydrospiro[cyclopentane-1,3′-pyrrolo[2,3-b]pyridin]-3-ene] | 6.05
OCC1(c2ccc(-c3cnc4c(c3Cl)C3(CC=CC3)CN4)cc2)CC1 [Compound 204, (1-(4-(4′-Chloro-1′,2′-dihydrospiro[cyclopentane-1,3′-pyrrolo[2,3-b]pyridin]-3-en-5′-yl)phenyl)cyclopropyl)methanol] | 6.55
CN(C)C(=O)c1ccc(-c2cnc3c(c2Cl)C2(CC=CC2)CN3)cc1F [Compound 205, 4-(4′-Chloro-1′,2′-dihydrospiro[cyclopentane-1,3′-pyrrolo[2,3-b]pyridin]-3-en-5′-yl)-2-fluoro-N,N-dimethylbenzamide] | 6.57
CN(C)C(=O)c1ccc(-c2cnc3c(c2Cl)C2(CC=CC2)CN3)c(F)c1 [Compound 206, 4-(4′-Chloro-1′,2′-dihydrospiro[cyclopentane-1,3′-pyrrolo[2,3-b]pyridin]-3-en-5′-yl)-3-fluoro-N,N-dimethylbenzamide] | 6.36
O=S(=O)(Nc1ccc(-c2cnc3c(c2Cl)C2(CC=CC2)CN3)cc1)C1CC1 [Compound 207, N-(4-(4′-Chloro-1′,2′-dihydrospiro[cyclopentane-1,3′-pyrrolo[2,3-b]pyridin]-3-en-5′-yl)phenyl)cyclopropanesulfonamide] | 7.06
O=S1(=O)CCCN1c1ccc(-c2cnc3c(c2Cl)C2(CC=CC2)CN3)cc1 [Compound 208, 2-(4-(4′-Chloro-1′,2′-dihydrospiro[cyclopentane-1,3′-pyrrolo[2,3-b]pyridin]-3-en-5′-yl)phenyl)isothiazolidine 1,1-dioxide] | 6.70
O=S(=O)(Nc1cccc(-c2cnc3c(c2Cl)C2(CC=CC2)CN3)c1)C1CC1 [Compound 209, N-(3-(4′-Chloro-1′,2′-dihydrospiro[cyclopentane-1,3′-pyrrolo[2,3-b]pyridin]-3-en-5′-yl)phenyl)cyclopropanesulfonamide] | 6.70
CS(=O)(=O)Nc1cccc(-c2cnc3c(c2Cl)C2(CC=CC2)CN3)c1 [Compound 210, N-(3-(4′-Chloro-1′,2′-dihydrospiro[cyclopentane-1,3′-pyrrolo[2,3-b]pyridin]-3-en-5′-yl)phenyl)methanesulfonamide] | 7.15
CC(=O)NCc1cccc(-c2cnc3c(c2Cl)C2(CC=CC2)CN3)c1 [Compound 211, N-(3-(4′-Chloro-1′,2′-dihydrospiro[cyclopentane-1,3′-pyrrolo[2,3-b]pyridin]-3-en-5′-yl)benzyl)acetamide] | 6.84
CC(=O)NCc1ccc(-c2cnc3c(c2Cl)C2(CC=CC2)CN3)cc1 [Compound 212, N-(4-(4′-Chloro-1′,2′-dihydrospiro[cyclopentane-1,3′-pyrrolo[2,3-b]pyridin]-3-en-5′-yl)benzyl)acetamide] | 6.95
CC(=O)NCCc1ccc(-c2cnc3c(c2Cl)C2(CC=CC2)CN3)cc1 [Compound 213, N-(4-(4′-chloro-1′,2′-dihydrospiro[cyclopentane-1,3′-pyrrolo[2,3-b]pyridin]-3-en-5′-yl)phenethyl)acetamide] | 6.54
O=C(NCCO)c1ccc(-c2cnc3c(c2Cl)C2(CC=CC2)CN3)cc1 [Compound 214, 4-(4′-Chloro-1′,2′-dihydrospiro[cyclopentane-1,3′-pyrrolo[2,3-6]pyridin]-3-en-5′-yl)-N-(2-hydroxyethyl)benzamide] | 6.47
Clc1c(-c2ccc(-n3cccn3)cc2)cnc2c1C1(CC=CC1)CN2 [Compound 215, 5′-(4-(1H-Pyrazol-1-yl)phenyl)-4′-chloro-1′,2′-dihydrospiro[cyclopentane-1,3′-pyrrolo[2,3-b]pyridin]-3-ene] | 6.17

Continued, values first:

pKi | SMILES
6.48 | OCc1ccc(-c2cnc3c(c2Cl)C2(CC=CC2)CN3)c(F)c1 [Compound 216, (4-(4′-Chloro-1′,2′-dihydrospiro[cyclopentane-1,3′-pyrrolo[2,3-b]pyridin]-3-en-5′-yl)-3-fluorophenyl)methanol]
6.64 | CN(C)S(=O)(=O)Nc1cccc(-c2cnc3c(c2Cl)C2(CC=CC2)CN3)c1 [Compound 218, N-(3-(4′-Chloro-1′,2′-dihydrospiro[cyclopentane-1,3′-pyrrolo[2,3-b]pyridin]-3-en-5′-yl)phenyl)-N′,N′-dimethylsulfamide]
6.32 | OCc1cccc(-c2cnc3c(c2Cl)C2(CC=CC2)CN3)c1F [Compound 219, (3-(4′-Chloro-1′,2′-dihydrospiro[cyclopentane-1,3′-pyrrolo[2,3-b]pyridin]-3-en-5′-yl)-2-fluorophenyl)methanol]
6.51 | Clc1c(-c2ccc(COC3CCOCC3)cc2)cnc2c1C1(CC=CC1)CN2 [Compound 220, 4′-Chloro-5′-(4-(((tetrahydro-2H-pyran-4-yl)oxy)methyl)phenyl)-1′,2′-dihydrospiro[cyclopentane-1,3′-pyrrolo[2,3-b]pyridin]-3-ene]
6.52 | N#CCCNC(=O)c1ccc(-c2cnc3c(c2Cl)C2(CC=CC2)CN3)cc1 [Compound 221, 4-(4′-Chloro-1′,2′-dihydrospiro[cyclopentane-1,3′-pyrrolo[2,3-b]pyridin]-3-en-5′-yl)-N-(2-cyanoethyl)benzamide]
6.56 | CC(=O)Nc1cccc(-c2cnc3c(c2Cl)C2(CC=CC2)CN3)c1 [Compound 222, N-(3-(4′-Chloro-1′,2′-dihydrospiro[cyclopentane-1,3′-pyrrolo[2,3-b]pyridin]-3-en-5′-yl)phenyl)acetamide]
6.36 | COCCc1ccc(-c2cnc3c(c2Cl)C2(CC=CC2)CN3)cc1 [Compound 223, 4′-Chloro-5′-(4-(2-methoxyethyl)phenyl)-1′,2′-dihydrospiro[cyclopentane-1,3′-pyrrolo[2,3-b]pyridin]-3-ene]
6.90 | Nc1ccc(-c2cnc3c(c2Cl)C2(CC=CC2)CN3)cc1 [Compound 224, 4-(4′-Chloro-1′,2′-dihydrospiro[cyclopentane-1,3′-pyrrolo[2,3-b]pyridin]-3-en-5′-yl)aniline]
